Usually IC50 stands for the concentration at which inhibition is half-maximal.

The values that follow come from patent US20030044861A1, “Method for diagnosing neoplasia” (priority 1998, published 2003).

Experiment [1] concerns PDE peak B (novel cGMP-specific PDE) from SW-480 cells. Kind of experiment: cGMP hydrolysis by PDE peak B. It counts as biochemical, human. Conditions: for IC50: cGMP hydrolysis, 0.25 μM 3H-cGMP substrate.
The target of experiment [2] is T1, PDE peak A (PDE5) from SW-480 cells (Homo sapiens, UniProt O76074).
T1 construct: SW-480 cells are collected and homogenized; The homogenate is centrifuged, and the supernatant is loaded onto a DEAE-Trisacryl M column; endogenous in cells; host or cells: SW-480 human colon carcinoma cells, DEAE-Trisacryl M fraction peak A
Kind of experiment: cGMP hydrolysis by PDE peak A. It counts as biochemical.

The subject of a further experiment is neoplastic cells. Kind of experiment: Apoptosis induction and growth inhibition in neoplastic cells (words only). It counts as cell-based.
In experiment [3] the test system is colonic polyps of familial polyposis patients. Kind of experiment: Apoptosis clinical study, apoptotic labeling index (ALI) in biopsies. It counts as in vivo, human. As to the method: Increases in apoptosis are indicative that the neoplasia in question is sensitive to treatment with a cGMP-specific PDE inhibitor, such as sulindac sulfone (aposulind). A human in vivo aposulind-induced selective induction of apoptosis in colonic polyps is described below. Six familial polyposis patients per group were administered one of three doses of aposulind (200 mg, 400 mg which was later lowered to 200 mg for most patients in the group, or 300 mg) twice daily (BID).
Biopsies are taken from patients and used to investigate possible cellular mechanisms of apoptosis. Biopsy samples are placed in transfer media (500 ml RPMI1640 containing 50 ml fetal calf serum, 5×10^8 units penicillin G, and 5×10^6 μg streptomycin) and kept on ice for less than 1 hour until transfer to the pathology department. Upon receipt in the pathology department, samples are removed from the transfer media and oriented mucosa up, serosa down on filter paper, placed between biopsy sponges in a tissue cassette, and fixed in 10% neutral buffered formalin for 24 hours. Samples are then transferred to 70% ethanol and embedded in paraffin. Samples are oriented perpendicularly to the tissue cassette during final orientation in paraffin for longitudinal crypt exposure and easy visualization of mucosa and the relation to the basement membrane.
Four micron sections of tissue were cut, mounted, deparaffinized, rehydrated in graded alcohol, and treated with pepsin (5 mg/ml) to digest protein in the tissue. Sections were washed and treated with 2% hydrogen peroxide (H2O2) in PBS to quench endogenous peroxidase and washed again. Tissue samples were then circled with a PAP pen (Research Products Int., 800-323-9814) to produce a hydrophobic barrier to concentrate reagents on the sample. If a DNase positive control is desired, the sample is treated with DNase for 10 minutes, equilibrated in transferase buffer, and treated using 100 enzyme units/ml terminal transferase enzyme (TdT) at 37° C. for 60 minutes. Samples are washed and anti-digoxigenin-peroxidase is applied. Each sample is then covered with a coverslip and left in a humid box at room temperature for 30 minutes. After washing three times peroxidase is developed using DAB for nine minutes. After sufficient color development, the slides are washed and counterstained with hemotoxylin and eosin.
Apoptotic and nonapoptotic cells are counted on the basis of staining and morphology. An apoptotic labeling index (ALI) is calculated by dividing the total number of apoptotic cells counted by the total number of epithelial cells counted and expressing the quotient as a percentage.

The test system of another experiment is HT-29 cells. Kind of experiment: Apoptosis and necrosis by morphology (acridine orange/ethidium bromide). It counts as cell-based. The settings on record: HT-29 cells treated for six days. As to the method: In one type of apoptosis assay, suspected neoplastic cells are removed from a patient. The cells are then grown in culture in the presence or absence of a cGMP-specific PDE inhibitor. Apoptotic cells are measured by combining both the attached and “floating” compartments of the cultures. The protocol for treating tumor cell cultures with PDE inhibitors and related compounds to obtain a significant amount of apoptosis has been described in the literature. (See, Piazza, G. A., et al., Cancer Research, 55:3110-16, 1995, which is incorporated herein by reference). The novel features of this assay include collecting both floating and attached cells, identification of the optimal treatment times and dose range for observing apoptosis, and identification of optimal cell culture conditions.
Following treatment of neoplastic and normal cells with a test compound, cultures can be assayed for apoptosis and necrosis by fluorescent microscopy following labeling with acridine orange and ethidium bromide. The method for measuring apoptotic cell number has previously been described by Duke & Cohen, “Morphological And Biochemical Assays Of Apoptosis,” Current Protocols In Immunology, Coligan et al., eds. 3.17.1-3.17.16 (1992, which is incorporated herein by reference).
For example, floating and attached cells are collected, and aliquots of cells are centrifuged. The cell pellet is then resuspended in media and a dye mixture containing acridine orange and ethidium bromide. The mixture is then examined microscopically for morphological features of apoptosis.
Apoptotic and necrotic cell death was determined as previously described (Duke and Cohen, In: Current Protocols in Immunology, 3.17.1-3.17.16, New York, John Wiley and Sons, 1992). […] All data were collected from the same experiment.
The diagnostic method of this invention is used to determine whether a particular neoplasia is sensitive to treatment with a cGMP-specific PDE inhibitor. The apoptosis inducing activity for a series of phosphodiesterase inhibitors, specific for different PDEs, was determined. HT-29 cells were treated for 6 days with various inhibitors of phosphodiesterase. Apoptosis and necrosis were determined morphologically after acridine orange and ethidium bromide labeling in accordance with the assay described, supra.

Entries after “also recorded” stand apart in the source; their conditions may differ. Where two headings read alike, the source gives them in different places.

For the compound `CCCCCC[C@@H]([C@@H](C)O)n1cnc2c(N)ncnc21` (racemic) [EHNA], the 50% inhibitory concentration (IC50) in experiment [1] was 3.7 µM; in experiment [2] (cGMP hydrolysis, 0.25 μM 3H-cGMP substrate) it was greater than 100 µM.

As for `COc1cc(/C=C2/C(C)=C(CC(=O)NCc3ccccc3)c3cc(F)ccc32)cc(OC)c1OC` [Compound E, [(Z)-5-fluoro-2-methyl-1-(3,4,5-trimethoxybenzylidene)-3-indenylacetamide, N-benzyl]], in the experiment with neoplastic cells, the “Apoptosis induction in neoplastic cells (in words)” value (“Apoptosis induction” for short) is “induce apoptosis in neoplastic cells” and the “Growth inhibition of neoplastic cells (in words)” value (from here on “Growth inhibition”) is listed as “precisely the opposite”. In experiment [1], the “Mode of inhibition of cGMP hydrolysis, peak B” value is reported as “competitively inhibit” and the IC50 amounted to 0.37 µM. The “Mode of inhibition of cGMP hydrolysis, peak A” value in experiment [2] was “competitively inhibit”. Moreover, the “Ratio (IC50 PeakA/Peak B)” value in experiment [2] (cGMP hydrolysis) turned out to be 1.0.

Consider `CC1=C(CC(=O)O)c2cc(F)ccc2/C1=C\c1ccc(S(C)(=O)=O)cc1` [Exisulind, (Z)-5-fluoro-2-methyl-1-[[4-(methylsulfonyl)phenyl]methylene]indene-3-yl acetic acid], for which the “Change in ALI after treatment” value in experiment [3] (200 mg BID group) is given as “did not demonstrate any elevation”. For the same compound, the “Mean Polyp ALI” value in experiment [3] (200 mg BID, Month 1) was 4.05%; in experiment [3] (200 mg BID, Month 4), 4.52%; in experiment [3] (200 mg BID, Month 6) it was 5.90%; in experiment [3] (300 mg BID, Month 1), 4.90%; in experiment [3] (300 mg BID, Month 6), 15.63%; in experiment [3] (400/200 mg BID, Month 1) it was 10.98%. The “Mean Polyp ALI” value is given as 5.51% in experiment [3] (400/200 mg BID, Month 4) and 5.10% in experiment [3] (400/200 mg BID, Month 6). Also, in experiment [3] (300 mg BID, six months), the “Change in ALI of polyps after treatment” value is reported as “two fold increase”. For the same compound, the “Change in ALI of dysplastic tissue after treatment” value in experiment [3] (400/200 mg BID group while uniformly dosed at 400 mg BID) is recorded as “two-fold elevation”. Also, in experiment [3] (familial polyposis patients), the “Polyp size and number” value is “diminution of polyp size and decrease in polyp number”. In experiment [3] (normal mucosa, any treatment group, over time), the “Change in normal mucosa ALI versus baseline ALI” value was “no significant change”. In experiment [3] (over six months of treatment), the “Apoptosis levels in regressing polyps” value was “doubled”. Further, the “Apoptotic and necrotic cell death (FIG. 1, in words)” value in the experiment on HT-29 cells is “capable of causing apoptotic cell death without inducing neoplastic cell necrosis”.

Regarding `CC1(C)C(=O)Nc2ccc(C3=NNC(=O)CC3)cc21` [Indolidan], in experiment [1], the “Sensitivity of the new cGMP-PDE to inhibition (in words)” value was “relatively insensitive” and the half-maximal inhibitory concentration (IC50) was greater than 100 µM. Besides, in experiment [2] (cGMP hydrolysis), the “Ratio (IC50 PeakA/Peak B)” value is recorded as less than 0.31.

Consider `CCCc1nn(C)c2c(=O)[nH]c(-c3cc(S(=O)(=O)N4CCN(C)CC4)ccc3OCC)nc12` [Sildenafil], for which, in the experiment with neoplastic cells, the “Apoptosis induction” value is listed as “none of the three; also recorded: do not have significant apoptosis-inducing or growth-inhibiting properties” and the “Growth inhibition” value was “none of the three; also recorded: do not have significant apoptosis-inducing or growth-inhibiting properties”. In experiment [2], the “Inhibition of peak A activity (in words)” value is listed as “inhibited activity of peak A”.

Consider `CCCOc1ccccc1-c1nc2nn[nH]c2c(=O)[nH]1` [Zaprinast], for which, in the experiment on neoplastic cells, the “Apoptosis induction” value is “do not have significant apoptosis-inducing or growth-inhibiting properties” and the “Growth inhibition” value is listed as “do not have significant apoptosis-inducing or growth-inhibiting properties”. Besides, in the experiment on neoplastic cells (listed as zaprinast), the “Apoptosis induction” value was “none of the three” and the “Growth inhibition” value was “none of the three”. In experiment [2], the “Mode of inhibition of cGMP hydrolysis, peak A” value is reported as “competitive inhibition”.
